# Laboratory results taken from patent US5696108A, “Protein kinase C inhibitors” (Eli Lilly and Company, priority 1996, dated 1997).
# Counter-ions that a name gives are not always drawn.
# What was measured:
# Settings in all cases: Table 1
# [1] = target: T1, src (Homo sapiens, UniProt P12931); experiment: Protein Tyrosine Kinase Assay (src); format: biochemical
# T1 construct: purchased Onogene Science, Inc. PK02 and PK03
# Protocol: Protein Tyrosine Kinase Assay (src)
# The Assay components are the following:
# 4 μL DMSO or DMSO/inhibitor
# [2] = target: T2, cAMP-dependent kinase catalytic subunit (Bos taurus, UniProt P00517); experiment: cAMP-Dependent protein Kinase Catalytic Subunit Assay; format: biochemical, bovine
# T2 construct: purchased Sigma, St. Louis, Mo; host or cells: bovine heart
# Protocol: cAMP-Dependent protein Kinase Catalytic Subunit Assay (PEA) The Assay components are in a total volume of 250 μL: 20 mM HEPES (Sigma, St. Louis, Mo.) buffer pH 7.5, 200 μg/mL histone type HL (Worthington), 10 mM magnesium chloride (Sigma, St. […] The reaction is initiated by addition of bovine heart cAMP-dependent kinase catalytic subunit (Sigma, St. Louis, Mo.), incubated to 30° C. for 10 minutes and stopped by adding 0.5 mL ice cold Trichloroacetic acid (Amresco) followed by 100 μL of 1 mg/mL bovine serum albumin (Sigma). The precipitate is collected by vacuum filtrated on glass fiber filters employing a TOMTEC™ and quantified by counting in a beta scintillation counter. This assay is done identical to the protein kinase C (PKC) enzyme assay except that no phospholipids or diacylglycerol are employed in the assay and the histone substrate is specific for the cAMP-dependent catalytic subunit enzyme.
# [3] = target: T3, casein protein kinase II (Rattus norvegicus, UniProt P19139); experiment: Casein Protein Kinase II Assay (CK-II); format: biochemical
# T3 construct: isolated from rat brain homogenate; from tissue; host or cells: rat brain homogenate
# Protocol: Casein Protein Kinase II Assay (CK-II)
# The Casein Protein Kinase II Assay is described in Neurochem. […] The assay components are in a total volume of 250 μL: 20 mM Tris-HCl, pH 7.5, 5 mM sodium fluoride, 50 mg/mL Casein (Sigma, St. Louis, Mo.), 10 mM magnesium chloride (Sigma, St. Louis, Mo.), 10 μL DMSO or DMSO/inhibitor and 30 μm (gamma-32P) ATP (DuPont). Initiation of the reaction is performed by addition of casein protein kinase II (isolated from rat brain homogenate), incubated at room temperature for 10 minutes and stopped by the addition of 0.5 mL ice cold Trichloroacetic acid (Amresco) followed by 100 μL of 1 mg/mL bovine serum albumin (Sigma, St. Louis, Mo.). The precipitate is collected by vacuum filtration on glass fiber filters and quantified by counting in a beta scintillation counter.
# Assay components in order of addition
# 10 μL or DMSO or DMSO/inhibitor
# 25 μL of AT32P in 300 μM magnesium chloride
# 40 μL of enzyme (undiluted)
# Buffer prepared as follows:
# (Final volume=3.5 mL: amount of 20 assays)
# [4] = target: PKC-β1 (Homo sapiens, UniProt P05771); experiment: PKC Enzyme Assay, beta-1 isozyme; format: biochemical
# Protocol: (§1) PKC enzymes=alpha, beta I, beta II, gamma, delta, epsilon, eta and zeta.
# (§2) Assay components in a total volume of 250 μL are as follows:
# (§3) For all the enzymes either histone type HL (Worthington) or myelin basic protein is used as substrate. The assay is started by addition of protein kinase C enzyme incubated at 30° C. for 10 minutes and stopped by adding 0.5 mL of cold trichloroacetic acid (Amresco) followed by 100 μL of 1 mg/mL bovine serum albumin (Sigma, St. Louis, Mo.). The precipitate is collected by vacuum filtration on glass fiber filters employing a TOMTEC™ filtration system and quantified by counting in a beta scintillation counter.
# [5] = target: calcium calmodulin dependent protein kinase; experiment: Calcium Calmodulin Dependent Protein Kinase Assay (CAM); format: biochemical, rat
# Protocol: Calcium Calmodulin Dependent Protein Kinase Assay (CAM)
# The reaction is initiated by the addition of calcium calmodulin dependent protein kinase (isolated from rat brain homogenate), incubated at room temperature for 10 minutes and stopped by adding 0.5 mL ice cold trichloroacetic acid (Amresco) followed by 100 μL of 1 mg/mL bovine serum albumin (Sigma, St. Louis, Mo.). The precipitate is collected by vacuum filtration on glass fiber filters and quantified by counting in a beta scintillation counter.
# 25 μL calmodulin (250 μg/mL)
# 10 μL DMSO or DMSO/inhibitor
# [6] = target: PKC-β2 (Homo sapiens, UniProt P05771); experiment: PKC Enzyme Assay, beta-2 isozyme; format: biochemical
# Protocol: as §1, §2, §3
# [7] = target: PKC-α (Homo sapiens, UniProt P17252); experiment: PKC Enzyme Assay, alpha isozyme; format: biochemical
# Protocol: as §1, §2, §3
# Chain of PKC-β1 (P05771 whole entry): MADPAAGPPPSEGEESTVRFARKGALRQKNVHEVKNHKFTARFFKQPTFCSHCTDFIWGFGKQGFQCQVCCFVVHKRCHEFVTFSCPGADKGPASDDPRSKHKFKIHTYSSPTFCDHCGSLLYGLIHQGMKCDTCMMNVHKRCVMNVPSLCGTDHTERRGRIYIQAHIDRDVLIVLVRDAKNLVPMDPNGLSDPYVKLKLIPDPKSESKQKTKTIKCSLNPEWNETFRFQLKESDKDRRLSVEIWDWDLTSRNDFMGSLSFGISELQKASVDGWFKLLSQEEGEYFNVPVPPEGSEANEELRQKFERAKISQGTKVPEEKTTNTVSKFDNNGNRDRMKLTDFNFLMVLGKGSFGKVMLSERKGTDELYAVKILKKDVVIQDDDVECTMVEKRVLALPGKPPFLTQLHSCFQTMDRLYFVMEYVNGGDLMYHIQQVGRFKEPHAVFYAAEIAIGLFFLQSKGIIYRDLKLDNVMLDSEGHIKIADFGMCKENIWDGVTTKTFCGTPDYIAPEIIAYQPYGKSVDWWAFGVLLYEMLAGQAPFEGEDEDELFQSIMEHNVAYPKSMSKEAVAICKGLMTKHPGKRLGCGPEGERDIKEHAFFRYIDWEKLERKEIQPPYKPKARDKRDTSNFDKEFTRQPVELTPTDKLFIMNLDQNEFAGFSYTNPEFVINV
# T3 sequence (P19139 whole entry): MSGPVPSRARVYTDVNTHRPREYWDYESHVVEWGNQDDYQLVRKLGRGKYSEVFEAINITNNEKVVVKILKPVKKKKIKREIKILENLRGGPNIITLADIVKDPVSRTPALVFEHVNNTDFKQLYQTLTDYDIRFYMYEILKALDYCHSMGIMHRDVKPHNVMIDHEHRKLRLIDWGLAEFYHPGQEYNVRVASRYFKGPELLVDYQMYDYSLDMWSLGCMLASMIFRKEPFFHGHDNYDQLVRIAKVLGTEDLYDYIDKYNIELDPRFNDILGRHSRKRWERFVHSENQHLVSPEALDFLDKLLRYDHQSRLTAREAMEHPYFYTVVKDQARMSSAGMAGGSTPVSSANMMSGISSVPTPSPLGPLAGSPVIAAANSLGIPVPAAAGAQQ
# T3 sequence (P67874 2-215 partner limits assumed): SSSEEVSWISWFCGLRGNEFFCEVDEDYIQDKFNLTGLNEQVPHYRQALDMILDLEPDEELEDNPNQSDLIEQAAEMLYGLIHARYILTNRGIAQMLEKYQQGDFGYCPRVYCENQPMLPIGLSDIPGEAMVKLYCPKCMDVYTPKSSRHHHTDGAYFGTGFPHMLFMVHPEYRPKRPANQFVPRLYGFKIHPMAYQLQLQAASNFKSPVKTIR
# T1 sequence (P12931 whole entry, species assumed): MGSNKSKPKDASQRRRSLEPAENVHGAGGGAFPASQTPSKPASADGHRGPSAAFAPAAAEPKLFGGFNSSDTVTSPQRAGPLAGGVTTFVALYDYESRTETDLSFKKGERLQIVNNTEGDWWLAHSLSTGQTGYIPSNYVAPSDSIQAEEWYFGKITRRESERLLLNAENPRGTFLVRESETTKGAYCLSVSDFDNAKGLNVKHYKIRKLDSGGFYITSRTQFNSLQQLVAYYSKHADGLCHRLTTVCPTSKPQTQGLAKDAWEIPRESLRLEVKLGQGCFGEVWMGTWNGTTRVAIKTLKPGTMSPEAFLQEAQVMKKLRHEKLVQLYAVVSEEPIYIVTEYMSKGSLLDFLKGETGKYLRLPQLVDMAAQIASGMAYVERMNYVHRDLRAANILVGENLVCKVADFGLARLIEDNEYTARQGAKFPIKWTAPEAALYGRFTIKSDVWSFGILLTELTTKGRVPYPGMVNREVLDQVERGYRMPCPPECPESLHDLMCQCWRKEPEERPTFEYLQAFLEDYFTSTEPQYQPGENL
# Chain of PKC-β2 (P05771 1-673 isoform P05771-2): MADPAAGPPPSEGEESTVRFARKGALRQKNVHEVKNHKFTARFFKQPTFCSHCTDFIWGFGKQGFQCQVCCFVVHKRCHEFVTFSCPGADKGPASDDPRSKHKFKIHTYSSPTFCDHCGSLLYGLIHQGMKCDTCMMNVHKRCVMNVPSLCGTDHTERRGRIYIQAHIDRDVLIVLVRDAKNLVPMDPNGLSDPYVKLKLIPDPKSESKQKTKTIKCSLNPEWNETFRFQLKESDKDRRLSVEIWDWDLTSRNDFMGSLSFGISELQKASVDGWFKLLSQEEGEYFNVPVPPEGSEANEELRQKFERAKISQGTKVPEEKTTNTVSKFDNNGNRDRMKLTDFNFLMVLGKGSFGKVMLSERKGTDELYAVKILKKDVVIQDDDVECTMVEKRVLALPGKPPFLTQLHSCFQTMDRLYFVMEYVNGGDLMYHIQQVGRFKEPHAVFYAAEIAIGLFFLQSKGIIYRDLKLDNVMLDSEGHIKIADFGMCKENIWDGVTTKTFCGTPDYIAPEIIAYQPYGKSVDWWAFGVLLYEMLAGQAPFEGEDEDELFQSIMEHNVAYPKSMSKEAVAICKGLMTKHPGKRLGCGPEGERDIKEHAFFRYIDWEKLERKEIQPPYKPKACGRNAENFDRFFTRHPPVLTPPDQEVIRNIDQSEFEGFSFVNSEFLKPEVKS
IC50 [1],IC50 [2],IC50 [3],IC50 [4],IC50 [5],IC50 [6],IC50 [7],Compound
> 100 µM,> 100 µM,> 10 µM,1 µM,> 10 µM,2 µM,> 100 µM,"O=C1NC(=O)C2=C1c1cn(c3ccccc13)CCCC(COCc1ccccc1)CCn1cc2c2ccccc21 (racemic) [Example 30, (±)-3,4-[(N,N'-1,1'-(3""-(benzyloxymethylene)hexane)-bis-(3,3'-indolyl)]-1H-pyrrole-2,5-dione]"
> 100 µM,> 100 µM,> 100 µM,0.4 µM,> 100 µM,0.2 µM,4 µM,"O=C1NC(=O)C2=C1c1cn(c3ccccc13)CCCOC(CO)CCn1cc2c2ccccc21 (stereo not shown) [Example 2, 3,4-[(N,N'-1,1')-((3""-propoxy)-3'""(O)-4'""(hydroxy)butane)-bis-(3,3'-indolyl)]-1(H)-pyrrole-2,5-dione]"
37 µM,–,> 100 µM,0.02 µM,3 µM,0.008 µM,0.3 µM,"NCC1CCn2cc(c3ccccc32)C2=C(C(=O)NC2=O)c2cn(c3ccccc23)CCO1 (stereo not shown) [Example 4, 3,4-[(N,N'-1,1'-((2'""-ethoxy)-3'""(O)-4'""-(amino)-butane)-bis-(3,3'-indolyl)]-1(H)-pyrrole-2,5-dione trifluoroacetate salt]"
33 µM,> 100 µM,> 100 µM,0.005 µM,0.69 µM,0.021 µM,0.3 µM,NC[C@H]1CCn2cc(c3ccccc32)C2=C(C(=O)NC2=O)c2cn(c3ccccc23)CCO1 [Example 4r]
63 µM,> 100 µM,> 100 µM,0.048 µM,2.5 µM,0.033 µM,1.3 µM,NC[C@@H]1CCn2cc(c3ccccc32)C2=C(C(=O)NC2=O)c2cn(c3ccccc23)CCO1 [Example 4s]
58 µM,> 100 µM,> 100 µM,0.35 µM,26 µM,0.16 µM,3 µM,NCC1CCn2cc(c3ccccc32)C2=C(C(=O)NC2=O)c2cn(c3ccccc23)CCCO1 (stereo not shown) [Example 9]
> 100 µM,> 100 µM,> 100 µM,0.3 µM,20 µM,0.1 µM,5 µM,CN(C)CC1CCn2cc(c3ccccc32)C2=C(C(=O)NC2=O)c2cn(c3ccccc23)CCCO1 (stereo not shown) [Example 11]
> 100 µM,> 100 µM,> 100 µM,0.032 µM,2.2 µM,0.03 µM,0.48 µM,CC(=O)NC[C@H]1CCn2cc(c3ccccc32)C2=C(C(=O)NC2=O)c2cn(c3ccccc23)CCO1 [Example 19r]
74 µM,> 100 µM,> 100 µM,–,7.3 µM,–,0.89 µM,O=C1NC(=O)C2=C1c1cn(c3ccccc13)CCO[C@@H](CN1CCCC1)CCn1cc2c2ccccc21 [Example 20r]
16 µM,> 100 µM,> 100 µM,–,6.7 µM,–,3 µM,O=C1NC(=O)C2=C1c1cn(c3ccccc13)CCO[C@H](CN1CCCC1)CCn1cc2c2ccccc21 [Example 20s]
> 100 µM,> 100 µM,> 100 µM,0.18 µM,–,0.05 µM,68 µM,O=C1NC(=O)C2=C1c1cn(c3ccccc13)CCO[C@@H](CNS(=O)(=O)c1ccccc1)CCn1cc2c2ccccc21 [Example 21r]
> 100 µM,–,> 100 µM,0.07 µM,2 µM,0.08 µM,1 µM,"O=C1NC(=O)C2=C1c1cn(c3ccccc13)CCCCCCn1cc2c2ccccc21 [Example 28, 3,4-[(N,N'-1,1'-hexane)-bis-(3,3'-indolyl)]-1H-pyrrole-2,5-dione]"
> 100 µM,> 100 µM,> 100 µM,0.02 µM,0.47 µM,0.03 µM,0.3 µM,"O=C1NC(=O)C2=C1c1cn(c3ccccc13)CCCC(CO)CCn1cc2c2ccccc21 (stereo not shown) [Example 31, 3,4-[(N,N'-1,1'-(3""-(hydroxy)methylene)hexane)-bis-(3,3'-indolyl)]-1H-pyrrole-2,5-dione]"
72 µM,> 100 µM,> 100 µM,0.01 µM,0.9 µM,0.008 µM,0.1 µM,"NCC1CCCn2cc(c3ccccc32)C2=C(C(=O)NC2=O)c2cn(c3ccccc23)CC1 (stereo not shown) [Example 32, 3,4-[(N,N'-1,1'-(3""-aminomethylene)-hexane)-bis-(3,3'-indolyl)]-1H-pyrrole-2,5-dione]"
> 100 µM,–,> 100 µM,0.1 µM,4 µM,0.1 µM,1 µM,"O=C1NC(=O)C2=C1c1cn(c3ccccc13)CCCC(CNCc1ccccc1)CCn1cc2c2ccccc21 (stereo not shown) [Example 34, 3,4-[(N,N'-1,1'-(3""-(N-benzylamino)methylene)-hexane)-bis-(3,3'-indolyl)]-1H-pyrrole-2,5-dione trifluoroacetate salt]"
> 100 µM,–,> 100 µM,3 µM,82 µM,2 µM,9 µM,"O=C1NC(=O)C2=C1c1cn(c3ccccc13)CCCC(CN(Cc1ccccc1)Cc1ccccc1)CCn1cc2c2ccccc21 (stereo not shown) [Example 35, 3,4-[(N,N'-1,1 '-(3""-(N,N-dibenzylamino)methylene)-hexane)-bis-(3,3'-indolyl)]-1H-pyrrole-2,5-dione trifluoroacetate salt]"
61 µM,> 100 µM,> 100 µM,0.005 µM,7.1 µM,0.014 µM,0.45 µM,"O=C1NC(=O)C2=C1c1cn(c3ccccc13)CCC[C@@H](CN1CCCC1)CCn1cc2c2ccccc21 [Example 36r, (R)-3,4-[(N,N'-1,1'-(3""-(N-pyrrolidino)methylene)-hexane)-bis-(3,3""-indolyl)]-1H-pyrrole-2,5-dione hydrochloride salt]"
> 100 µM,> 100 µM,> 100 µM,0.05 µM,5 µM,0.04 µM,0.7 µM,"COCC1CCCn2cc(c3ccccc32)C2=C(C(=O)NC2=O)c2cn(c3ccccc23)CC1 (stereo not shown) [Example 37, 3,4-[(N,N'-1,1'-(3""-methoxymethylene)-hexane)-bis-(3,3'-indolyl)]-1H-pyrrole-2,5-dione]"
4.4 µM,> 100 µM,> 100 µM,–,5 µM,–,0.6 µM,CN(C)CC1CCCn2cc(c3ccccc32)C2=C(C(=O)NC2=O)c2cn(c3ccccc23)CC1 (stereo not shown) [Example 40]
71 µM,> 100 µM,> 100 µM,–,8 µM,–,0.3 µM,"CN(C)C[C@@H]1CCCn2cc(c3ccccc32)C2=C(C(=O)NC2=O)c2cn(c3ccccc23)CC1 [Example 40r, (R)-3,4-[(N,N'-1,1'-(3""-(N,N-dimethylamino)methylene)-hexane)-bis-(3,3'-indolyl)]-1H-pyrrole-2,5-dione hydrochloride salt]"
> 100 µM,–,> 100 µM,0.04 µM,0.6 µM,0.03 µM,0.4 µM,O=C1NC(=O)C2=C1c1cn(c3ccccc13)CCCCCn1cc2c2ccccc21 [Example 43]
